Converted amounts (≈) assume the structure as drawn. Read-outs that look alike come from different tables or passages of the source.
What was measured:
Assay type in all cases: cell-based
[1] = test system: C. difficile ATCC43598; test: MIC, broth microdilution; conditions: Clostridioides difficile, C. difficile ATCC43598
[2] = test system: C. difficile ATCC43255; test: MIC, broth microdilution; conditions: Clostridioides difficile, C. difficile ATCC43255
[3] = test system: C. difficile BAA-1870; test: MIC, broth microdilution; conditions: Clostridioides difficile, BAA1870, C. difficile BAA-1870 (NAP1, ribotype 27)
[4] = test system: C. difficile BAA-1804; test: MIC, broth microdilution; conditions: Clostridioides difficile, BAA1804, C. difficile BAA-1804
[5] = test system: C. difficile BAA-1803; test: MIC, broth microdilution; conditions: Clostridioides difficile, BAA1803, C. difficile BAA-1803 (NAP1, ribotype 027)
[6] = test system: C. difficile BAA-1801; test: MIC, broth microdilution; conditions: Clostridioides difficile, BAA1801, C. difficile BAA-1801 (nontoxigenic)
[7] = test system: C. difficile BAA-1812; test: MIC, broth microdilution; conditions: Clostridioides difficile, BAA1812, C. difficile BAA-1812
[8] = test system: C. difficile BAA-1814; test: MIC, broth microdilution; conditions: Clostridioides difficile, BAA1814, C. difficile BAA-1814
[9] = test system: C. difficile NR49310; test: MIC, broth microdilution; conditions: Clostridioides difficile, C. difficile NR49310 (NAP7, ribotype 078)
[10] = test system: C. difficile NR49294; test: MIC, broth microdilution; conditions: Clostridioides difficile, C. difficile NR49294 (NAP4, ribotype 014)
[11] = test system: C. difficile NR49305; test: MIC, broth microdilution; conditions: Clostridioides difficile, C. difficile NR49305 (NAP6, ribotype 002)
[12] = test system: C. difficile NR49318; test: MIC, broth microdilution; conditions: Clostridioides difficile, C. difficile NR49318 (NAP11, ribotype 106)
[13] = test system: C. difficile NR49292; test: MIC, broth microdilution; conditions: Clostridioides difficile, C. difficile NR49292 (NAP2, ribotype 001_072)
[14] = test system: C. difficile NR49302; test: MIC, broth microdilution; conditions: Clostridioides difficile, C. difficile NR49302 (NAP4, ribotype 020)
[15] = test system: Bacteroides fragilis HM-709; test: MIC against common gut bacteria; conditions: HM709; Bacteroides fragilis HM-709; read-out: MIC
[16] = test system: Bacteroides fragilis; test: MIC against common gut bacteria; conditions: read-out: MIC
[17] = test system: Bacteroides ovatus; test: MIC against common gut bacteria; conditions: read-out: MIC
[18] = test system: Bacteroides vulgatus; test: MIC against common gut bacteria; conditions: Phocaeicola vulgatus; Bacteroides vulgatus; read-out: MIC
[19] = test system: Bacteroides eggerthii; test: MIC against common gut bacteria; conditions: read-out: MIC
[20] = test system: Bacteroides caccae; test: MIC against common gut bacteria; conditions: read-out: MIC
[21] = test system: Bifidobacterium longum HM-846; test: MIC against common gut bacteria; conditions: HM846; Bifidobacterium longum HM-846; read-out: MIC
[22] = test system: Corynebacterium sp. HM-784; test: MIC against common gut bacteria; conditions: SP.HM784; Corynebacterium sp. HM-784; incubated aerobically; read-out: MIC
Method: Minimally-inhibitory concentrations. MICs for C. difficile strains and the common gut bacteria were determined using broth microdilution techniques as reported earlier using brucella broth supplemented with hemin and vitamin K or supplemented BHIS broth (Babakhani et al., J Antimicrob Chemother 2013, 68(3), 515). Lactobacillus MRS broth was used for lactobacillus strains. […] All incubations unless specified otherwise were carried out at 24 or 48 h at 37° C. in an anaerobic chamber (Whitley DG250 workstation, Microbiology International, Frederick, MD). Corynebacterium and lactobacillus species were incubated aerobically.

[23] = test system: Fusobacterium nucleatum HM-992; test: MIC against common gut bacteria; conditions: HM992; Fusobacterium nucleatum HM-992; read-out: MIC
[24] = test system: Lactobacillus reuteri HM-102; test: MIC against common gut bacteria; conditions: for MIC: Limosilactobacillus reuteri, HM102, Lactobacillus reuteri HM-102, read-out: MIC
[25] = test system: Lactobacillus gasseri HM-644; test: MIC against common gut bacteria; conditions: for MIC: HM644, Lactobacillus gasseri HM-644, read-out: MIC
[26] = test system: Veillonella sp. HM-49; test: MIC against common gut bacteria; conditions: for MIC: SP.HM49, Veillonella sp. HM-49, read-out: MIC
[27] = test system: Eubacterium sp. HM-178; test: MIC against common gut bacteria; conditions: SP.HM178

Oc1ccc(-c2nc(-c3ccc(OC4CCCC4)cc3)no2)cc1 [Compound 2] was tested, and the MIC ([1]; 24 h, read-out: MIC at 24 h) was 1 µg/mL (≈ 3.1 µM), the MIC ([1]; 48 h, read-out: MIC at 48 h) was 2 µg/mL (≈ 6.2 µM) and the MIC ([2]; 24 h, read-out: MIC at 24 h) was 2 µg/mL (≈ 6.2 µM). The MIC ([2]; 48 h, read-out: MIC at 48 h) was 2 µg/mL (≈ 6.2 µM), the MIC ([3]; 24 h, read-out: MIC at 24 h) was 2 µg/mL (≈ 6.2 µM) and the MIC ([3]; 48 h, read-out: MIC at 48 h) was 2 µg/mL (≈ 6.2 µM). It also gave an MIC ([4]; 24 h, read-out: MIC at 24 h) of 2 µg/mL (≈ 6.2 µM), an MIC ([4]; 48 h, read-out: MIC at 48 h) of 2 µg/mL (≈ 6.2 µM) and an MIC ([5]; 24 h, read-out: MIC at 24 h) of 1 µg/mL (≈ 3.1 µM). It also gave an MIC ([5]; 48 h, read-out: MIC at 48 h) of 2 µg/mL (≈ 6.2 µM), an MIC ([6]; 24 h, read-out: MIC at 24 h) of 2 µg/mL (≈ 6.2 µM) and an MIC ([6]; 48 h, read-out: MIC at 48 h) of 2 µg/mL (≈ 6.2 µM). It also gave an MIC ([7]; 24 h, read-out: MIC at 24 h) of 2 µg/mL (≈ 6.2 µM), an MIC ([7]; 48 h, read-out: MIC at 48 h) of 2 µg/mL (≈ 6.2 µM) and an MIC ([8]; 24 h, read-out: MIC at 24 h) of 2 µg/mL (≈ 6.2 µM). The MIC ([8]; 48 h, read-out: MIC at 48 h) was 2 µg/mL (≈ 6.2 µM), the MIC ([9]; 24 h, read-out: MIC at 24 h) was 2 µg/mL (≈ 6.2 µM) and the MIC ([9]; 48 h, read-out: MIC at 48 h) was 4 µg/mL (≈ 12.4 µM). For the same molecule, the MIC ([10]; 24 h, read-out: MIC at 24 h) was 1 µg/mL (≈ 3.1 µM), the MIC ([10]; 48 h, read-out: MIC at 48 h) was 2 µg/mL (≈ 6.2 µM) and the MIC ([11]; 24 h, read-out: MIC at 24 h) was 2 µg/mL (≈ 6.2 µM). The MIC ([11]; 48 h, read-out: MIC at 48 h) was 2 µg/mL (≈ 6.2 µM), the MIC ([12]; 24 h, read-out: MIC at 24 h) was 2 µg/mL (≈ 6.2 µM) and the MIC ([12]; 48 h, read-out: MIC at 48 h) was 4 µg/mL (≈ 12.4 µM). It also gave an MIC ([13]; 24 h, read-out: MIC at 24 h) of 1 µg/mL (≈ 3.1 µM), an MIC ([13]; 48 h, read-out: MIC at 48 h) of 2 µg/mL (≈ 6.2 µM) and an MIC ([14]; 24 h, read-out: MIC at 24 h) of 2 µg/mL (≈ 6.2 µM). The MIC ([14]; 48 h, read-out: MIC at 48 h) was 2 µg/mL (≈ 6.2 µM), the MIC [15] was 1 µg/mL (≈ 3.1 µM) and the MIC [16] was 2 µg/mL (≈ 6.2 µM). It also gave an MIC [17] of 2 µg/mL (≈ 6.2 µM), an MIC [18] of 2 µg/mL (≈ 6.2 µM) and an MIC [19] of 1 µg/mL (≈ 3.1 µM). The MIC [20] was 2 µg/mL (≈ 6.2 µM), the MIC [21] was 1 µg/mL (≈ 3.1 µM) and the MIC [22] was 0.5 µg/mL (≈ 1.55 µM). For the same molecule, the MIC [23] was 2 µg/mL (≈ 6.2 µM), the MIC [24] was greater than 128 µg/mL and the “Activity against Lactobacillus reuteri” value ([24]; in words) was “not active”. The MIC [25] was greater than 128 µg/mL, the “Activity against Lactobacillus gasseri” value ([25]; in words) was “not active” and the MIC [26] was greater than 128 µg/mL. For the same molecule, the “Activity against Veillonella sp.” value ([26]; in words) was “not active” and the MIC [27] was 4 µg/mL (≈ 12.4 µM).
Molecule CCc1c(Cl)c(O)c(Cl)c(O)c1C(=O)O[C@H]1[C@H](O)[C@H](OC)[C@H](OC/C2=C\C=C\C[C@H](O)/C(C)=C/[C@H](CC)[C@@H](O[C@@H]3OC(C)(C)[C@@H](OC(=O)C(C)C)[C@H](O)[C@@H]3O)/C(C)=C/C(C)=C/C[C@@H]([C@@H](C)O)OC2=O)O[C@@H]1C [fidaxomicin] has an MIC ([1]; 24 h, read-out: MIC at 24 h) of 0.01 µg/mL (≈ 0.00945 µM), an MIC ([1]; 48 h, read-out: MIC at 48 h) of 0.01 µg/mL (≈ 0.00945 µM) and an MIC ([2]; 24 h, read-out: MIC at 24 h) of 0.01 µg/mL (≈ 0.00945 µM). The MIC ([2]; 48 h, read-out: MIC at 48 h) was 0.01 µg/mL (≈ 0.00945 µM), the MIC ([3]; 24 h, read-out: MIC at 24 h) was less than 0.25 µg/mL and the MIC ([3]; 48 h, read-out: MIC at 48 h) was 0.25 µg/mL (≈ 0.236 µM). It also gave an MIC ([4]; 24 h, read-out: MIC at 24 h) of less than 0.25 µg/mL, an MIC ([4]; 48 h, read-out: MIC at 48 h) of less than 0.25 µg/mL and an MIC ([5]; 24 h, read-out: MIC at 24 h) of 0.5 µg/mL (≈ 0.473 µM). It also gave an MIC ([5]; 48 h, read-out: MIC at 48 h) of 1 µg/mL (≈ 0.945 µM), an MIC ([6]; 24 h, read-out: MIC at 24 h) of 0.03 µg/mL (≈ 0.0284 µM) and an MIC ([6]; 48 h, read-out: MIC at 48 h) of 0.125 µg/mL (≈ 0.118 µM). It also gave an MIC ([7]; 24 h, read-out: MIC at 24 h) of 0.015 µg/mL (≈ 0.0142 µM), an MIC ([7]; 48 h, read-out: MIC at 48 h) of 0.125 µg/mL (≈ 0.118 µM) and an MIC ([8]; 24 h, read-out: MIC at 24 h) of no more than 0.01 µg/mL. It also gave an MIC ([8]; 48 h, read-out: MIC at 48 h) of 0.03 µg/mL (≈ 0.0284 µM), an MIC ([9]; 24 h, read-out: MIC at 24 h) of no more than 0.01 µg/mL and an MIC ([9]; 48 h, read-out: MIC at 48 h) of no more than 0.01 µg/mL. It also gave an MIC ([10]; 24 h, read-out: MIC at 24 h) of no more than 0.01 µg/mL, an MIC ([10]; 48 h, read-out: MIC at 48 h) of 0.01 µg/mL (≈ 0.00945 µM) and an MIC ([11]; 24 h, read-out: MIC at 24 h) of 0.01 µg/mL (≈ 0.00945 µM). The MIC ([11]; 48 h, read-out: MIC at 48 h) was 0.01 µg/mL (≈ 0.00945 µM), the MIC ([12]; 24 h, read-out: MIC at 24 h) was 0.25 µg/mL (≈ 0.236 µM) and the MIC ([12]; 48 h, read-out: MIC at 48 h) was 0.125 µg/mL (≈ 0.118 µM). The MIC ([13]; 24 h, read-out: MIC at 24 h) was 0.25 µg/mL (≈ 0.236 µM), the MIC ([13]; 48 h, read-out: MIC at 48 h) was 0.5 µg/mL (≈ 0.473 µM) and the MIC ([14]; 24 h, read-out: MIC at 24 h) was 0.03 µg/mL (≈ 0.0284 µM). The MIC ([14]; 48 h, read-out: MIC at 48 h) was 0.03 µg/mL (≈ 0.0284 µM), the MIC [15] was greater than 32 µg/mL and the MIC [16] was greater than 32 µg/mL. It also gave an MIC [17] greater than 32 µg/mL, an MIC [18] greater than 32 µg/mL and an MIC [19] greater than 32 µg/mL. It also gave an MIC [20] greater than 32 µg/mL, an MIC [21] of less than 0.01 µg/mL and an MIC [22] of less than 0.06 µg/mL. The MIC [23] was less than 0.06 µg/mL, the MIC [24] was greater than 32 µg/mL and the MIC [25] was 2 µg/mL (≈ 1.89 µM). The MIC [26] was 8 µg/mL (≈ 7.56 µM) and the MIC [27] was 16 µg/mL (≈ 15.1 µM).

Source: US12054466B2, “Compounds for the treatment of clostridium difficile infection” (University of Notre Dame du Lac, priority 2016, dated 2024)
